The target in this assay is T1, human GPR119 (Homo sapiens, UniProt Q8TDV5).
T1 construct: expressed in transfected cells
T1 sequence (Q8TDV5 1-335): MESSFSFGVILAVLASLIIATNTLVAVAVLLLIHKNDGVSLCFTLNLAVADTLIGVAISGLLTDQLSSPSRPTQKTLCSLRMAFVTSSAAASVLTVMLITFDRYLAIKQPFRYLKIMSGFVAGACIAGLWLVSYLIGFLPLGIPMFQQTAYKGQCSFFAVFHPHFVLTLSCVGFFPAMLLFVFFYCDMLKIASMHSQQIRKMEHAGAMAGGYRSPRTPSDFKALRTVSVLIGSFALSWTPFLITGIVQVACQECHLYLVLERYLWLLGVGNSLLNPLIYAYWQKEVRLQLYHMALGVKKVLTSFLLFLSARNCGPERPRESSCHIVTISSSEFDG
Description: Functional cellular assay measuring GPR119-mediated cAMP release (HTRF). Type of assay: cell-based. Conditions: HEK-293 cell line stably expressing recombinant human GPR119; cAMP response, 30 minutes at room temperature. As to the method:
Functional Cellular Assays Measuring GPR119-Mediated cAMP Release
Compounds of the invention, which are agonists of GPR119, were characterized by functional assays measuring the cAMP response of HEK-293 cell lines stably expressing recombinant GPR119 from man, mouse or rat, or by using a hamster cell line HIT-T15 expressing GPR119 endogenously. The cAMP content was determined using a kit based on homogenous time-resolved fluorescence (HTRF) from Cisbio Corp. (cat. no. 62AM4PEC). For preparation, cells were split into T175 culture flasks and grown to near confluency in medium (DMEM/10% FCS for HEK-293 cells, and F-12K medium/10% horse serum/2.5% FCS for HIT-T15 cells, respectively). Medium was then removed and cells washed with PBS lacking calcium and magnesium ions, followed by proteinase treatment with accutase (Sigma-Aldrich, cat. no. A6964). Detached cells were washed and resuspended in assay buffer (1×HBSS; 20 mM HEPES, 0.1% BSA, 2 mM IBMX) and cellular density determined. They were then diluted to 400000 cells/mL and 25 μL-aliquots dispensed to the wells of 96-well plates. For measurement, 25 μL of test compound in assay buffer was added and incubated for 30 minutes at room temperature. After addition of HTRF reagents diluted in lysis buffer, the plates were incubated for 1 hour, followed by measuring the fluorescence ratio at 665 vs. 620 nm. Potency of the agonists was quantified by determining the concentrations that caused 50% of the maximal response/activation (EC50). See Table 4 for exemplary data obtained using the cell line expressing human GPR119.

Among the data in patent US9896434B2, “Substituted indanone compounds as GPR119 modulators for the treatment of diabetes, obesity, dyslipidemia and related disorders” (SANOFI, priority 2014, dated 2018) are EC50 values, retold here.

As to `O=C(O)CC1CC(=O)c2cc(N3CC[C@@H](Oc4ccc(OCC5CC5)nc4)C3=O)ccc21` (stereo partly drawn) [Example 2-02, {5-[(R)-3-(6-Cyclopropylmethoxy-pyridin-3-yloxy)-2-oxo-pyrrolidin-1-yl]-3-oxo-indan-1-yl}-acetic acid], the concentration for a half-maximal effect (EC50) (commonly the concentration needed to bring the measured effect to its halfway point) worked out at 0.135 µM.

As to `O=C(O)CC1Cc2c(F)cc(N3CC[C@@H](Oc4ccc(OCC5CC5)nc4)C3=O)cc2C1=O` (stereo partly drawn) [Example 2-01, {6-[(R)-3-(6-cyclopropylmethoxy-pyridin-3-yloxy)-2-oxo-pyrrolidin-1-yl]-4-fluoro-1-oxo-indan-2-yl}-acetic acid], the concentration for a half-maximal effect (EC50) stood at 0.36 µM.

On to `NC(=O)CC1Cc2c(F)cc(N3CC[C@@H](Oc4ccc(OCC5CC5)nc4)C3=O)cc2C1=O` (stereo partly drawn) [Example 3-05, 2-[6-[(3R)-3-[[6-(cyclopropylmethoxy)-3-pyridyl]oxy]-2-oxo-pyrrolidin-1-yl]-4-fluoro-1-oxo-indan-2-yl]acetamide], for which the concentration for a half-maximal effect (EC50) was 0.078 µM.

For `CN(C)C(=O)CC1Cc2c(F)cc(N3CC[C@@H](Oc4ccc(OCC5CC5)nc4)C3=O)cc2C1=O` (stereo partly drawn) [Example 3-06, 2-[6-[(3R)-3-[[6-(cyclopropylmethoxy)-3-pyridyl]oxy]-2-oxo-pyrrolidin-1-yl]-4-fluoro-1-oxo-indan-2-yl]-N,N-dimethyl-acetamide], the EC50 was 0.046 µM.

For `COC(=O)CC1Cc2ccc(N3CC[C@@H](Oc4ccc(OCC5CC5)nc4)C3=O)cc2C1=O` (stereo partly drawn) [Example 1-12, methyl 2-[6-[(3R)-3-[[6-(cyclopropylmethoxy)-3-pyridyl]oxy]-2-oxo-pyrrolidin-1-yl]-1-oxo-indan-2-yl]acetate], the EC50 stood at 0.029 µM.

For `COC(=O)CC1(CC(=O)O)Cc2c(F)cc(N3CC[C@@H](Oc4ccc(OCC5CC5)nc4)C3=O)cc2C1=O` (stereo partly drawn) [Example 1-07, 2-[6-[(3R)-3-[[6-(cyclopropylmethoxy)-3-pyridyl]oxy]-2-oxo-pyrrolidin-1-yl]-4-fluoro-2-(2-methoxy-2-oxo-ethyl)-1-oxo-indan-2-yl]acetic acid], the concentration giving a half-maximal response (EC50) amounted to 0.332 µM.

`COC(=O)C[C@H]1CC(=O)c2cc(N3CC[C@@H](Oc4ccc(OCC5CC5)nc4)C3=O)ccc21` [Example 1-15, methyl 2-[(1R)-5-[(3R)-3-[[6-(cyclopropylmethoxy)-3-pyridyl]oxy]-2-oxo-pyrrolidin-1-yl]-3-oxo-indan-1-yl]acetate]: the EC50 was determined as 0.016 µM.

On to `O=C1CC(CO)c2ccc(N3CC[C@@H](Oc4ccc(OCC5CC5)nc4)C3=O)cc21` (stereo partly drawn) [Example 1-18, (3R)-3-[[6-(cyclopropylmethoxy)-3-pyridyl]oxy]-1-[1-(hydroxymethyl)-3-oxo-indan-5-yl]pyrrolidin-2-one], for which the half-maximal effective concentration (EC50) is 0.198 µM.
